Source: the NIST ThermoML archive (doi:10.1016/j.jct.2017.07.016)

Assay: xn = mol fraction of the nth substance listed
Conditions: 96.7 kPa, Liquid; for viscosity: Capillary tube (Ostwald / Ubbelohde) method; for mass density: Vibrating tube method

CCCCCCn1cc[n+](C)c1.[Cl-] [1-hexyl-3-methylimidazolium chloride] + CC(=O)N(C)C
Conditions	mass density [kg/m3]	viscosity [mPa·s]
303.15 K, x1 = 0.155	967.16	3.756
303.15 K, x1 = 0.301	989.75	14.88
303.15 K, x1 = 0.392	999.94	35.44
303.15 K, x1 = 0.503	1009.66	92.11
303.15 K, x1 = 0.63	1018.78	295.88
303.15 K, x1 = 0.794	1027.67	917.88
303.15 K, x1 = 0.887	1032.11	2891.3
303.15 K, x1 = 1	1036.07	5718.5
308.15 K, x1 = 0.155	962.92	3.352
308.15 K, x1 = 0.301	986.11	12.57
308.15 K, x1 = 0.392	996.46	28.6
308.15 K, x1 = 0.503	1006.34	70.17
308.15 K, x1 = 0.63	1015.69	212.96
308.15 K, x1 = 0.794	1024.64	624.84
308.15 K, x1 = 0.887	1029.11	1853.1
308.15 K, x1 = 1	1033.22	3430.8
313.15 K, x1 = 0.155	958.82	3.026
313.15 K, x1 = 0.301	982.47	10.74
313.15 K, x1 = 0.392	992.99	23.52
313.15 K, x1 = 0.503	1003.03	55.61
313.15 K, x1 = 0.63	1012.58	158.14
313.15 K, x1 = 0.794	1021.62	440.38
313.15 K, x1 = 0.887	1026.14	1212.9
313.15 K, x1 = 1	1030.38	2146.1
318.15 K, x1 = 0.155	954.87	2.739
318.15 K, x1 = 0.301	978.83	9.242
318.15 K, x1 = 0.392	989.54	19.54
318.15 K, x1 = 0.503	999.74	44.26
318.15 K, x1 = 0.63	1009.45	119.42
318.15 K, x1 = 0.794	1018.61	313.65
318.15 K, x1 = 0.887	1023.19	814.85
318.15 K, x1 = 1	1027.56	1390.4
323.15 K, x1 = 0.155	951	2.493
323.15 K, x1 = 0.301	975.21	8.018
323.15 K, x1 = 0.392	986.09	16.46
323.15 K, x1 = 0.503	996.46	35.84
323.15 K, x1 = 0.63	1006.33	91.95
323.15 K, x1 = 0.794	1015.58	229.39
323.15 K, x1 = 0.887	1020.2	563.41
323.15 K, x1 = 1	1024.75	928.1
328.15 K, x1 = 0.155	947.22	2.28
328.15 K, x1 = 0.301	971.59	7.038
328.15 K, x1 = 0.392	982.65	14
328.15 K, x1 = 0.503	993.19	29.41
328.15 K, x1 = 0.63	1003.22	71.92
328.15 K, x1 = 0.794	1012.63	171.63
328.15 K, x1 = 0.887	1017.33	400.32
328.15 K, x1 = 1	1021.92	638.79
333.15 K, x1 = 0.155	943.5	2.091
333.15 K, x1 = 0.301	967.98	6.213
333.15 K, x1 = 0.392	979.22	12.02
333.15 K, x1 = 0.503	989.93	24.45
333.15 K, x1 = 0.63	1000.11	57.41
333.15 K, x1 = 0.794	1009.73	130.32
333.15 K, x1 = 0.887	1014.53	291.17
333.15 K, x1 = 1	1019.13	453.59
338.15 K, x1 = 0.155	939.77	1.931
338.15 K, x1 = 0.301	964.37	5.522
338.15 K, x1 = 0.392	975.8	10.41
338.15 K, x1 = 0.503	986.68	20.82
338.15 K, x1 = 0.63	997.03	46.28
338.15 K, x1 = 0.794	1006.85	101.08
338.15 K, x1 = 0.887	1011.76	216.49
338.15 K, x1 = 1	1016.38	327.52
343.15 K, x1 = 0.155	935.94	1.786
343.15 K, x1 = 0.301	960.77	4.918
343.15 K, x1 = 0.392	972.39	9.14
343.15 K, x1 = 0.503	983.44	17.42
343.15 K, x1 = 0.63	993.95	37.9
343.15 K, x1 = 0.794	1003.99	79.83
343.15 K, x1 = 0.887	1009.01	163.62
343.15 K, x1 = 1	1013.65	243.04
348.15 K, x1 = 0.155	932.05	1.658
348.15 K, x1 = 0.301	957.18	4.443
348.15 K, x1 = 0.392	968.98	8.018
348.15 K, x1 = 0.503	980.22	14.93
348.15 K, x1 = 0.63	990.89	31.38
348.15 K, x1 = 0.794	1001.15	63.75
348.15 K, x1 = 0.887	1006.28	125.96
348.15 K, x1 = 1	1010.91	183.45
353.15 K, x1 = 0.155	928.09	1.542
353.15 K, x1 = 0.301	953.59	4.015
353.15 K, x1 = 0.392	965.58	7.115
353.15 K, x1 = 0.503	977	12.86
353.15 K, x1 = 0.63	987.84	26.46
353.15 K, x1 = 0.794	998.33	51.4
353.15 K, x1 = 0.887	1003.57	98.54
353.15 K, x1 = 1	1008.18	140.06
